One block for each compound: values may come before it.
Assays:
[1] = particle diameter of modified vesicles; assay type: physicochemical
[2] = aggregation on addition of dextran: turbidity at 800 nm; assay type: physicochemical; conditions: dextran
Method: The precipitation of the vesicles was dispersed again to be 5 wt %, and thereto dextran (molecular weight of 40000) was added as a colloid osmotic pressure controller. The stability of the dispersion was observed by determination of turbidity at 800 nm.
The stability of the MPDSPE-modified vesicle was evaluated by adding, to the above dispersion, dextran (molecular weight: 4000) which is a colloid osmotic pressure controller, and measuring the turbidity from the absorbance at 800 nm. […] This proves the aggregation inhibition effect of the MPDSPE of the vesicle stabilizer of the present invention.
The resulting dispersion was treated with a microfluidizer at 2500 psi at 4° C. for 15 minutes to obtain a dispersion of SDSPE-modified vesicles having average particle diameter of 350±95 nm. This dispersion was centrifuged (100000 G, 30 minutes) to obtain a precipitate of vesicles. The precipitate was dispersed again into a solution to be 5% by weight. Occurrence of aggregation of the vesicles was tested by adding dextran (molecular weight 40000) to the dispersion and measuring the turbidity change at 800 nm. […] Therefrom the modification was confirmed to be effective to inhibition of aggregation caused by dextran.
5.0 g of a powdery lipid mixture containing the above STEC (DPPC:cholesterol:stearic acid:STEC=7:7:2:2 in molar ratio) was dispersed in 100 ml of saline, and the dispersion was stirred at 4° C. for 24 hours. The resulting dispersion was treated with a microfluidizer at 2500 psi at 4° C. for 15 minutes. This dispersion was centrifuged (10000 G, 30 minutes) to obtain precipitate of STEC-modified vesicles. The precipitate was dispersed again in to saline to be 5 wt %. The stability of the vesicles was evaluated by adding 2.5 wt % solution of dextran (molecular weight 40000) to the above vesicle layer and measuring the turbidity change at 800 nm. The STEC-modified vesicles caused the turbidity increase of 58% of that of the unmodified vesicles (DPPC:cholesterol:stearic acid=7:7:2 in molar ratio), thereby the inhibition effect of STEC, a vesicle stabilizer of the present invention being confirmed.

[3] = introduction ratio into mixed lipid vesicles; assay type: physicochemical
Method: (§1) The ratio of introduction of the stabilizer into the vesicles is determined by treating the dispersion of the vesicles by gel filtration or ultracentrifuge to remove the superfluous stabilizer which has not been introduced into the vesicles, and quantitatively determining saccharide in respective fractions by a phenol-sulfuric acid method. The stabilizer of the present invention, when employed in an amount of from 2 to 10 mol %, is introduced into the vesicles in a ratio of 90% or more.
The effect of the LPMS of the present invention on stabilization of vesicles was evaluated as follows. A powdery lipid mixture containing LPMS was prepared from dimyristoyl phosphatidylcholine, cholesterol, myristic acid, and LPMS (in molar ratio of 7:7:2:0.3) was prepared by freeze-drying. 100 ml of saline was added to 10 g of the above powdery lipid mixture, and the mixture was stirred at 4° C. for 24 hours to prepare a liquid dispersion. […] The introduction ratio of the LPMS was 85% according to saccharide determination of the supernatant liquid after centrifugation.
500 mg of a powdery lipid mixture containing MPDSG of the present invention was prepared from DPPC, cholesterol, distearyl phosphatidic acid, and MPDSG (in molar ratio of 10:9:0.9:0.5) was prepared by freeze-drying from benzene. […]

[4] = introduction ratio of ODM into DODPC vesicles; assay type: physicochemical
Method: Polymerizable 2,4-octadecadienyl-0-α(β)-maltose (hereinafter referred to as "ODM") was prepared from maltose and 2,4-octadecadienol according to the method shown in Example 11. A solution of 2.0 mg of this ODM in 1 ml of chloroform was mixed with a solution of 200 mg of di(2,4-octadecadienoyl)phosphatidylcholine (hereinafter referred to as "DODPC") as a polymerizable lipid in 5 ml of chloroform. The mixture was evaporated by a rotary evaporator to form a thin film on a wall of an eggplant-shape flask. 20 ml of pure water was added thereto, and agitated with glass beads by a vortex mixer. The resulting ODM-modified vesicle dispersion was treated by an extruder to prepare a dispersion of nearly uniform particle diameters. The vesicle dispersion was irradiated with γ-ray to copolymerize the ODM and the polymerizable lipid, DODPC. A portion of the irradiated dispersion was diluted fivefold with pure water and was left standing at 4° C. for 24 hours. The introduction ratio of ODM was measured by centrifuging the diluted and undiluted dispersions (300000 G, 60 minutes) respectively and determining the ODM in the supernatant by a phenol-sulfuric acid method.

[5] = turbidity increase of copolymerized vesicle dispersion, 4 °C for 24 hours; assay type: physicochemical; conditions: before fivefold dilution
[6] = change of turbidity at 500 nm with time on standing at room temperature (FIG. 1); assay type: physicochemical; conditions: 0.5% by weight
Method: The dispersion stability of the vesicle is evaluated by measuring the change with time of the absorbance (turbidity) with a spectrophotometer at a wavelength of 500 to 800 nm of the gel-filtered dispersion which is left standing at room temperature. Otherwise, the dispersion stability of the vesicle can be measured by the viscosity of the vesicle dispersion with a rotating viscometer, or microscopic observation by electron microscopy.
The ability of the oligosaccharide lipid of the present invention, namely of MPDSG, for stabilizing a vesicle was evaluated as follows. 3 mg of MPDSG and 100 mg of dipalmitoyl phosphatidylcholine (hereinafter referred to "DPPC") as a phospholipid were dissolved in methanol. The methanol was evaporated by use of a rotary evaporator to form a thin film on the inside wall of an eggplant shape flask. Thereto, 5 ml of pure water and several glass beads were added, and the content of the flask was agitated at 60° C. by means of a vortex mixer to form a whitish turbid liquid. This whitish turbid liquid was treated with an extruder. […]
(§2) The stability of the vesicle dispersion which had been passed through the 0.05 μm filter was evaluated by measuring the change of absorbance (turbidity) at 500 nm with time on standing at room temperature by means of a UV-visible light spectrophotometer.

[7] = tested on: washed human RBC (red blood cell); conditions: washed red blood cells, 2 h, pH 7.4
[8] = introduction ratio into the vesicle (phenol-sulfuric acid method); assay type: physicochemical; conditions: 3 mg MPDSG per 100 mg DPPC; dispersion diluted to 0.5% by weight, gel filtration
Method: as §1, §2
2.4 mg of DOMG prepared in the same manner as in Example 11 was dissolved in 1 ml of chloroform. This solution was mixed with a solution of 100 mg of DPPC in 5 ml of chloroform, thereby DOMG being 2 mol % of DPPC. The solution mixture was evaporated by means of an evaporator to form a thin film on the inside wall of an eggplant-shape flask. Then 10 ml of pure water was added thereto so as to obtain a concentration of 1.0% by weight of the vesicles. The mixture was stirred with glass beads by means of a vortex mixer, and subsequently treated by an extruder to prepare a dispersion of DOMG-modified DPPC vesicles having controlled diameters of particles. A portion of the resulting dispersion was diluted to a fivefold volume with pure water to prepare a dispersion having vesicle concentration of 0.2% by weight.
The two dispersions of the DOMG-modified vesicles having concentrations of 1.0% by weight and 0.2% by weight were left standing at 4° C. for 24 hours, and were ultracentrifuged (300000 G, 60 minutes). The free DOMG in the supernatant was determined by a phenol-sulfuric acid method, and therefrom the ratio of introduction DOMG to the vesicles was calculated.
As the results, the introduction ratios were 94.3%, and 77.0% respectively at the vesicle concentrations of 1.0% by weight and 0.2% by weight. The results are shown in Table 4 together with the results of Comparative Examples 6 and 7 described later in which an oligosaccharide derivative was employed.

[9] = viscosity of vesicle dispersion on addition of calcium ion (rotating viscometer); assay type: physicochemical; conditions: 5 mM calcium chloride
Method: The stability of the vesicles was evaluated as below. The precipitate of the vesicles prepared by centrifuge was dispersed again into saline by a vortex mixer. To this sample, calcium chloride (as calcium ion) was added to be 5 mM, and the viscosity of the dispersion was measured with a rotating viscometer (Vismetron VS-AK). The viscosity of 5 cp was not changed by addition of the calcium ion.
To this dispersion, calcium chloride (as calcium ion) was added to be 5 mM, and the viscosity of the dispersion was measured with a rotating viscometer (Vismetron VS-AK).
To this dispersion, calcium chloride (as calcium ion) was added to be 5 mM, and the viscosity of the dispersion was measured with a rotating viscometer (Vismetron VS-AK). The viscosity of 5 cp was not changed by addition of the calcium ion. On the contrary, the dispersion of the vesicles prepared from powdery lipid mixture not containing DACOA (DPPC:cholesterol:distearylphosphatidic acid=10:9:0.9 in molar ratio) aggregated immediately on addition of calcium ion because of negative charge on the surface of the vesicle, causing the viscosity rise up to 11 cp.
The stability of the dispersion of the DOLG-modified vesicles having adjusted particle diameters was evaluated by addition of 5 mM calcium chloride and observing the viscosity change. The viscosity was measured at 37° C. by a rotating viscometer. […] On the contrary, a dispersion of unmodified vesicles prepared from a powdery lipid mixture containing no DOLG (DPPC:cholesterol:stearic acid=7:7:2 in molar ratio) caused immediate aggregation of the vesicles on addition of calcium ion in the same manner as above because of the negative charge on the surface of the vesicle, and the viscosity increased up to 11 cp. Accordingly, the sufficient effect of the DOLG, a vesicle stabilizer of the present invention, was confirmed in inhibiting the aggregation of vesicles by calcium ion.

[10] = rat, in vivo
[11] = mixed lipid vesicles, microfluidizer

average diameter [1, 11]: 320±115 nm
turbidity change on addition of dextran (in words) [2]: did not show turbidity rise
Compound: CCCCCCCCCCCCCCCCCC(=O)OCC(COP(=O)(O)OCCNC(=O)[C@H](O)[C@@H](O)[C@H](O[C@H]1O[C@H](CO)[C@@H](O[C@H]2O[C@H](CO)[C@@H](O[C@H]3O[C@H](CO)[C@@H](O[C@H]4O[C@H](CO)[C@@H](O)[C@H](O)[C@H]4O)[C@H](O)[C@H]3O)[C@H](O)[C@H]2O)[C@H](O)[C@H]1O)[C@H](O)CO)OC(=O)CCCCCCCCCCCCCCCCC (stereo partly shown) [MPDSPE, Maltopentaose distearoyl phosphatidyl ethanolamide]

average diameter [1, 11]: 350±95 nm
turbidity change on addition of dextran (in words) [2]: little rise of turbidity
Compound: CCCCCCCCCCCCCCCCCC(=O)OCC(COP(=O)(O)OCCNC(=O)[C@H](O)[C@@H](O)[C@H](O[C@@H]1O[C@H](CO)[C@@H](O)[C@H](O)[C@H]1O)[C@H](O)CO)OC(=O)CCCCCCCCCCCCCCCCC (stereo partly shown) [SDSPE, cellobiose distearoylphosphatidyl ethanolamine]

introduction ratio ([3]; dimyristoyl phosphatidylcholine:cholesterol:myristic acid:LPMS 7:7:2:0.3): 85%
average diameter [1, 11]: 300±130 nm
turbidity change on addition of dextran (in words) [2]: did not give turbidity increase
Compound: CCCCCCCCCCCCCCCCCCOC1O[C@H](CO)[C@@H](O)[C@H](O[C@@H]2O[C@H](CO)[C@@H](O)[C@H](O[C@@H]3O[C@H](CO)[C@@H](O)[C@H](O[C@@H]4O[C@H](CO)[C@@H](O)[C@H](O[C@@H]5O[C@H](CO)[C@@H](O)[C@H](O)[C@H]5O)[C@H]4O)[C@H]3O)[C@H]2O)[C@H]1O (stereo partly shown) [LPMS, laminaripentaose monostearyl ether]

introduction ratio of ODM ([4]; copolymerized by γ-ray, both diluted (fivefold) and undiluted dispersions): 94.2%
introduction ratio of ODM ([4]; not copolymerized, after fivefold dilution): 66.9%
introduction ratio of ODM ([4]; not copolymerized, before fivefold dilution): 93.8%
turbidity increase relative to unmodified vesicles [5]: 10.9%
Compound: CCCCCCCCCCCCCC=CC=CCOC1O[C@H](CO)[C@@H](O[C@H]2O[C@H](CO)[C@@H](O)[C@H](O)[C@H]2O)[C@H](O)[C@H]1O (stereo partly drawn) [ODM, 2,4-octadecadienyl-0-α(β)-maltose]

turbidity rise in comparison with that of the unmodified vesicle [6]: about 7%
introduction ratio ([3]; DPPC:cholesterol:distearyl phosphatidic acid:MPDSG 10:9:0.9:0.5): 98%
introduction ratio into the vesicle [8]: 99%
inhibition of aggregation of vesicles by calcium ion (in words) [9]: inhibited nearly completely
viscosity change on addition of calcium ion (in words) [9]: not changed
viscosity of the dispersion with calcium ion ([9]; Vismetron VS-AK): 5 cp
average diameter ([1]; DPPC vesicle, 0.05 μm extruder, particle size analyzer): 57±12 nm
average diameter ([1]; DPPC vesicle, 0.05 μm extruder, transmission electron microscope with negative stain): 55±10 nm
average particle diameter ([1]; hemoglobin-enclosing vesicles after 0.2 μm extrusion and gel filtration): 203±50 nm
average diameter ([1]; hemoglobin-enclosing vesicles, microfluidizer, before 0.2 μm extrusion): 300±98 nm
average particle diameter ([1]; mixed lipid vesicles, 0.2 μm filter by extruder): 200 nm
average half-life from the blood stream [10]: 38 h
Compound: maltopentaose distearyl glycerol [MPDSG]
inhibition of aggregation (in words) [6]: little turbidity increase later, showing the inhibition of the aggregation
hemolysis [7]: 5%

From patent publication US5472951A, “Stabilizer for phospholipid vesicles” (Chiba Flour Milling Co., Ltd., priority 1992, dated 1995)
